biological target: T1, MAT2A homodimer (Homo sapiens, UniProt P31153); assay: MAT2A inhibition (biochemical, liberated phosphate, PiColorLock Gold); conditions: recombinant MAT2A homodimer; IC50 bin with Max Inh.; read-out: Enzyme Inhibition Bin
T1 construct: inferred from Ni sepharose purification with imidazole elution; made in house; host or cells: Sf9 insect cells, baculovirus (Bac to Bac, pFASTBAC1)
Protocol: Mat2A protein was expressed by recombinant baculovirus in SF9 infected cells using the Bac to Bac system cloned into the pFASTBAC1 vector (Invitrogen, Carlsbad, Calif.). Recombinant MAT2A was isolated from the cell lysate of 150 g of infected cells using HP Ni sepharose column chromatography. Recombinant MAT2A homodimer was eluted with 250 and 500 mM imidazole, and fractions containing MAT2A were identified by sodium dodecyl sulfate polyacrylamide gel electrophoresis and pooled.
For determination of the inhibitory potency of compounds against the MAT2A homodimer, protein was diluted to 4 μg/mL in assay buffer (50 mM Tris, pH 8.0, 50 mM KCl, 15 mM MgCl2, 0.3 mM EDTA, 0.005% [w/v] bovine serum albumin [BSA]). Test compound was prepared in 100% dimethyl sulfoxide (DMSO) at 50× the desired final concentration. A 1 μL volume of compound dilution was added to 40 μL of enzyme dilution and the mixture was allowed to equilibrate for 60 minutes at 25° C. The enzymatic assay was initiated by the addition of 10 μL of substrate mix (500 μM ATP, pH 7.0, 400 μM L-methionine in 1× assay buffer), and the mixture was incubated for a further 60 minutes at 25° C. The reaction was halted and the liberated phosphate released by the enzyme in stoichiometric amounts by the production of S-adenosyl methionine (SAM) was measured using the PiColorLock Gold kit (Innova Biosciences, UK). Absolute product amounts were determined by comparison to a standard curve of potassium phosphate buffer, pH 8.0. The compounds were also tested in a secondary assay utilizing 1 μg/mL MAT2A and incubated for 5 hours at 25° C. before halting and processing as above.
Specific compounds disclosed herein were tested in the foregoing assay and they were determined to inhibit MAT2A with an IC50. See, Table 1 below.

T1 sequence (P31153 whole entry): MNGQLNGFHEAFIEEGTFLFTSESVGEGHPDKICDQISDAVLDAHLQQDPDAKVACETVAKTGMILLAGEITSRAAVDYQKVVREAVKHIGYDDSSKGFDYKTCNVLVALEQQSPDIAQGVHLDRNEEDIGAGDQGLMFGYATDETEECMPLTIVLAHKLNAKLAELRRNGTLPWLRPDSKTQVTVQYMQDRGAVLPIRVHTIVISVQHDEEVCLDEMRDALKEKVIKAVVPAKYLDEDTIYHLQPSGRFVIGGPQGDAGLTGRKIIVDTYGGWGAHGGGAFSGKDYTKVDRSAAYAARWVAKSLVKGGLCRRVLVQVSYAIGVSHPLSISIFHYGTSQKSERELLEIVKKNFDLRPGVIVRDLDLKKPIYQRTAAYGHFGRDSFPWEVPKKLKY

Structure (SMILES)	IC50 [µM]
Cc1ccc(-c2c(=O)n(-c3ccc4nn(C)cc4c3)nc3c(C#N)c(C)n(CC4CC4)c23)cn1 [Example 266, 5-(cyclopropylmethyl)-6-methyl-2-(2-methyl-2H-indazol-5-yl)-4-(6-methylpyridin-3-yl)-3-oxo-2H,3H,5H-pyrrolopyridazine-7-carbonitrile]	> 10
Cc1c(C#N)c2nn(-c3ccc4nn(C)cc4c3)c(=O)c(-c3ccc(C4CC4)nc3)c2n1CC1CC1 [Example 265, 5-(cyclopropylmethyl)-4-(6-cyclopropylpyridin-3-yl)-6-methyl-2-(2-methyl-2H-indazol-5-yl)-3-oxo-2H,3H,5H-pyrrolopyridazine-7-carbonitrile]	> 10
CNS(=O)(=O)c1cn(CC2CC2)c2c(-c3ccc(C4CC4)cc3)c(=O)n(-c3ccc4nn(C)cc4c3)nc12 [Example 179, 5-(cyclopropylmethyl)-4-(4-cyclopropylphenyl)-N-methyl-2-(2-methyl-2H-indazol-5-yl)-3-oxo-3,5-dihydro-2H-pyrrolo[3,2-c]pyridazine-7-sulfonamide]	> 10
CNS(=O)(=O)c1cn(CC2CC2)c2c(-c3ccc(C4CC4)nc3)c(=O)n(-c3ccc4nn(C)cc4c3)nc12 [Example 181, 5-(cyclopropylmethyl)-4-(6-cyclopropylpyridin-3-yl)-N-methyl-2-(2-methyl-2H-indazol-5-yl)-3-oxo-3,5-dihydro-2H-pyrrolo[3,2-c]pyridazine-7-sulfonamide]	> 10
CNS(=O)(=O)c1cn(CC2CC2)c2c(-c3ccc(OC(F)F)cc3)c(=O)n(-c3ccc4nn(C)cc4c3)nc12 [Example 183, 5-(cyclopropylmethyl)-4-(4-(difluoromethoxy)phenyl)-N-methyl-2-(2-methyl-2H-indazol-5-yl)-3-oxo-3,5-dihydro-2H-pyrrolo[3,2-c]pyridazine-7-sulfonamide]	> 10
CNS(=O)(=O)c1cn(CC2CC2)c2c(-c3ccc(C)nc3)c(=O)n(-c3ccc4nn(C)cc4c3)nc12 [Example 182, 5-(cyclopropylmethyl)-N-methyl-2-(2-methyl-2H-indazol-5-yl)-4-(6-methylpyridin-3-yl)-3-oxo-3,5-dihydro-2H-pyrrolo[3,2-c]pyridazine-7-sulfonamide]	> 10

Results, then the molecule that gave them:

IC50 [µM]	Structure (SMILES)
< 1	Cn1cc2cc(-n3nc4c(S(C)(=O)=O)cn(CC5CC5)c4c(-c4ccc(C5CC5)nc4)c3=O)ccc2n1 [Example 261, 5-(cyclopropylmethyl)-4-(6-cyclopropylpyridin-3-yl)-2-(2-methyl-2H-indazol-5-yl)-7-(methylsulfonyl)-2,5-dihydro-3H-pyrrolo[3,2-c]pyridazin-3-one]
< 1	CC(C)Cn1cc(C#N)c2nn(-c3ccc4nn(C)cc4c3)c(=O)c(-c3ccc(C4CC4)nc3)c21 [Example 121, 4-(6-cyclopropylpyridin-3-yl)-5-isobutyl-2-(2-methyl-2H-indazol-5-yl)-3-oxo-3,5-dihydro-2H-pyrrolo[3,2-c]pyridazine-7-carbonitrile]
< 1	CC(C)n1cc(C#N)c2nn(-c3ccc4nn(C)cc4c3)c(=O)c(-c3ccc(C4CC4)nc3)c21 [Example 146, 4-(6-cyclopropylpyridin-3-yl)-5-isopropyl-2-(2-methyl-2H-indazol-5-yl)-3-oxo-3,5-dihydro-2H-pyrrolo[3,2-c]pyridazine-7-carbonitrile]
> 10	Cn1cc2cc(-n3nc4ccn(CC5CC5)c4c(-c4cncc(C(F)(F)F)c4)c3=O)ccc2n1 [Example 125, 5-(cyclopropylmethyl)-2-(2-methyl-2H-indazol-5-yl)-4-(5-(trifluoromethyl)pyridin-3-yl)-2,5-dihydro-3H-pyrrolo[3,2-c]pyridazin-3-one]
> 10	CN1CC=C(n2nc3ccn(CC4CC4)c3c(-c3ccc(C4CC4)nc3)c2=O)CC1 [Example 232, 5-(cyclopropylmethyl)-4-(6-cyclopropylpyridin-3-yl)-2-(1-methyl-1,2,3,6-tetrahydropyridin-4-yl)-2,5-dihydro-3H-pyrrolo[3,2-c]pyridazin-3-one]
< 0.1	Cn1cc2cc(-n3nc4c(c(CC5CC5)cn4C)c(-c4ccc(OC(F)F)cc4)c3=O)ccc2n1 [Example 272, 5-(cyclopropylmethyl)-4-(4-(difluoromethoxy)phenyl)-7-methyl-2-(2-methyl-2H-indazol-5-yl)-2,7-dihydro-3H-pyrrolo[2,3-c]pyridazin-3-one]
< 1	Cn1cc2cc(-n3nc4c(S(C)(=O)=O)cn(CC5CC5)c4c(-c4ccc(C5CC5)cc4)c3=O)ccc2n1 [Example 262, 5-(cyclopropylmethyl)-4-(4-cyclopropylphenyl)-2-(2-methyl-2H-indazol-5-yl)-7-(methylsulfonyl)-2,5-dihydro-3H-pyrrolo[3,2-c]pyridazin-3-one]
< 1	CN(C)C(=O)c1cn(CC2CC2)c2c(-c3ccc(C4CC4)nc3)c(=O)n(-c3ccc4nn(C)cc4c3)nc12 [Example 164, 5-(cyclopropylmethyl)-4-(6-cyclopropylpyridin-3-yl)-N,N-dimethyl-2-(2-methyl-2H-indazol-5-yl)-3-oxo-3,5-dihydro-2H-pyrrolo[3,2-c]pyridazine-7-carboxamide]
< 1	Cn1cc2cc(-n3nc4ccn(CC5CC5)c4c(-c4cncc(Cl)c4)c3=O)ccc2n1 [Example 126, 4-(5-chloropyridin-3-yl)-5-(cyclopropylmethyl)-2-(2-methyl-2H-indazol-5-yl)-2,5-dihydro-3H-pyrrolo[3,2-c]pyridazin-3-one]

Source: US20220169654A1, “New Organic Compounds” (Servier Pharmaceuticals LLC, priority 2020, published 2022)
